Test results as given in patent publication US7094869B2, “Low molecular weight peptidomimetic growth hormone secretagogues” (Genentech, Inc., priority 1994, dated 2006).
Read-outs that look alike come from different tables or passages of the source. Non-standard residues stand in square brackets, D forms with d. Residues, ends and D or L forms follow the SMILES beside them. ξ: configuration not given here. dNMe2Nal = CN[C@H](Cc1ccc2ccccc2c1)C(=O)O; 2Nal = N[C@@H](Cc1ccc2ccccc2c1)C(=O)O; d2Nal = N[C@H](Cc1ccc2ccccc2c1)C(=O)O; ξ2Nal = NC(Cc1ccc2ccccc2c1)C(=O)O; NMeF = CN[C@@H](Cc1ccccc1)C(=O)O; Tic = O=C(O)[C@@H]1Cc2ccccc2CN1; Inp = O=C(O)C1CCNCC1; ξK = NCCCCC(N)C(=O)O; Ahx = NCCCCCC(=O)O; Ava = NCCCCC(=O)O; GABA = NCCCC(=O)O

What was measured:
[1] = system: growth hormone secretion; assay: GHRP induced growth hormone secretion, intravenous administration (Rat IV); format: in vivo; conditions: serum GH 10 min after injection; for RAT IV ED50: iv injection
Procedure: Immature weanling female Sprague Dawley rats were purchased from Charles River Labs (Portage, […].) and group housed with water and food available ad libitum. When the rats were 24-30 days old (weighing 50-90 g) they were anesthetized with pentobarbitone (4 mg in 0.5 ml, approximately 60 mg/kg) given by intraperitoneal injection. The rats were then placed briefly on a heated pad, to distend their tail veins, and given an intravenous tail vein injection of the peptides 20 minutes after receiving the anesthetic. The intravenous injection was of 0.1 ml using a 1 ml syringe. The injections contained graded doses of peptides or the vehicle (vehicle for all peptides given intravenously was a buffer of 20 mM sodium acetate, 45 g/l mannitol, pH 5.0). Ten minutes after the intravenous injection blood was taken by cardiac puncture, using a 3 ml syringe, and the rats were then sacrificed.
The blood was then clotted on ice, centrifuged, serum decanted and frozen for subsequent analysis using the rat GH ELISA described elsewhere in the application. For the rat GH ELISA the serum was diluted 1:50 or 1:250, depending on the expected serum GH concentrations achieved, and assayed in duplicate.

[2] = biological target: rat pituitary cells (Rattus norvegicus, UniProt O08725)
Procedure: Pituitaries from ten rats were removed, the posterior pituitary discarded and the anterior pituitary placed in Hanks' Balanced Salt Solution (HBSS: without calcium chloride, w/o magnesium chloride, w/o magnesium sulfate; Gibco) containing 20 mM HEPES (Gibco) and 100 U/ml penicillin streptomycin (PS: JRH Biosciences). Under sterile conditions, pituitaries were rinsed twice then minced into small fragments with a razor blade. […] After the incubation, fragments were triturated to yield small clumps and single cells. The cells were centrifuged 1000× g for 5 min, resuspended, counted and plated at a final cell concentration of 100,000 cells/ml. Incubation media was DME low glucose media w/NaHCO3 (Gibco) containing 20 mM hepes, 100 U/ml PS and 10% FBS (Hyclone A-111-L). Cells were plated at 0.5 ml per well in 48 well plates (Falcon) and incubated at 37° C. in 5% C02 for three days. For challenges to determine release of other pituitary hormones cells were plated at 200,000 cells per ml with 2 ml per well of a Swell plate (Corning). Challenge: A (inip)bbFK-NH2 stock (or other GHRP) concentration of 1 mM was made in DMSO and diluted with warmed media approximately 30 min prior to use. The highest concentration of DMSO in media was 0.1%. Stock solutions (1 mM) of rat GHRH, somatostatin (Sigma) and GHRP antagonist HwkWfK were made fresh in media and diluted appropriately. The media used in all challenges and washing steps was DME low glucose with 20 mM Hepes, 100 U/ml PS, 10% FBS. Media was warmed to 37° C. and gassed by placing it into the incubator prior to challenge. On day three, the media was discarded and fresh media (approximately 1 ml) added for the first of three washes. After the last wash, the plate was placed back in the incubator for a 15 min pre-incubation. Then cells were washed 2× (with warmed and gassed media) and fresh 0.5 ml media were added for the second 15 min. pre-incubation. After the second pre-incubation cells were washed 2× as above and 0.5 ml of control and test solutions were added for a final 15 min incubation. After this incubation, the media were removed for subsequent GH ELISA. GH ELISA: A two-site ELISA was used to determine rat GH concentration in the media. […] After blocking and washing, standard (rat GH reference preparation: Parlow) and challenge media is diluted 1:20 prior to GH assay were added for a 1 hr room temperature incubation. STATISTICS: The mean for each group was determined and analyzed by one-way analysis of variance with a post-hoc Student-Newman-Keuls. Significance is defined as P<0.05. The EC50 was calculated using a 4-parameter curve-fit program (Kaleidagraph). Three to four independent EC50s were used to derive the mean and SEM. RIA of pituitary hormones: LH, FSH, TSH, and Prolactin were determined with commercially available kits from Amersham, and ACTH levels were determined by a RIA kit from ICN. CALCIUM FLUX EXPERIMENT: Pituitary cells were plated on fibronectin (Collaborative Research) coated two-chambered slide wells (Nunc). After four days in monolayer culture cells were rinsed three times with HBSS (Gibco) in 1% BSA and 15 mM HEPES and then incubated for 30 min at 37° C. with 5 μM Indo-1 AM (Molecular Probes, Eugene) in HBSS also containing 1% pluronic F127 (Molecular Probes). The cells were rinsed once and fresh media added for RT incubation. […] C^++ flux was imaged with a Meridian ACAS 570 using stage scanning at 21 second intervals.

[3] = read-out: PIT Cell EC50, Table III, formula IV compounds, GH release, 15 min incubation
[4] = read-out: PIT Cell EC50, Table IV, formula III compounds, GH release, 15 min incubation
[5] = read-out: “Pit” Cell EC50, Table II, prior art compounds, GH release, 15 min incubation

Sequence of rat pituitary cells (O08725 whole entry, the tested form may be a part): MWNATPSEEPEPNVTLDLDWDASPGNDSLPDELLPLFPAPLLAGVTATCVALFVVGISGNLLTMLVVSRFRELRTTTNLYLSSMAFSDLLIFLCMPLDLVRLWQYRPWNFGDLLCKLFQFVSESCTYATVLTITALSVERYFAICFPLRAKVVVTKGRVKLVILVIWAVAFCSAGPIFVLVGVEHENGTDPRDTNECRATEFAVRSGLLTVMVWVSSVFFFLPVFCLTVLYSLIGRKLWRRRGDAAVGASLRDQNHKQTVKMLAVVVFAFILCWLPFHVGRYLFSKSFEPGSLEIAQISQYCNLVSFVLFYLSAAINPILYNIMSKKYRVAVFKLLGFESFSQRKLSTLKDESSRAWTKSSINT

Structure (SMILES)	RAT IV ED50 ([1]; Table III) [µg]	EC50 [2, 3] [nM]	further results
CN(C)C(=O)C(Cc1ccccc1)NC(=O)[C@@H](Cc1ccc2ccccc2c1)NC(=O)[C@@H](Cc1ccc2ccccc2c1)NC(=O)C1CCNCC1 (single isomer, unassigned) [(inip) b b F dam]	10	–	–
NCCCNC(=O)[C@H](Cc1ccc2ccccc2c1)NC(=O)[C@@H](Cc1ccc2ccccc2c1)NC(=O)[C@@H](Cc1ccc2ccccc2c1)NC(=O)CCCN [(Ab) b b B ram, (4-Aminobutanoyl)-DβNal-DβNal-βNal-[N-(3-aminopropyl)] Amide]	10	2.4	–
NCCCCC(NC(=O)[C@H](Cc1ccccc1)NC(=O)[C@@H](Cc1ccc2ccccc2c1)NC(=O)C(Cc1ccc2ccccc2c1)NC(=O)CCCN)C(N)=O (stereo partly drawn) [(Ab) b b F K amide, (4-aminobutanoyl)-DβNal-DβNal-Phe-Lys-amide] (H-[GABA][ξ2Nal][d2Nal]F[ξK]-NH2)	1	0.4	–
NCCCC(=O)N[C@H](Cc1ccc2ccccc2c1)C(=O)N[C@H](Cc1ccc2ccccc2c1)C(=O)N[C@@H](Cc1ccccc1)C(N)=O [(Ab) b b F amide] (H-[GABA][d2Nal][d2Nal]F-NH2)	–	–	EC50 [2, 4]: 3.1 nM; RAT IV ED50 ([1]; Table IV): 10 µg
CN(C(=O)CCCN)[C@H](Cc1ccc2ccccc2c1)C(=O)N[C@H](Cc1ccc2ccccc2c1)C(=O)N[C@@H](Cc1ccccc1)C(=O)N[C@@H](CCCCN)C(N)=O [(Ab) nmb b F K amide] (H-[GABA][dNMe2Nal][d2Nal]FK-NH2)	1	0.5	–
CN(C(=O)CCCN)[C@H](Cc1ccc2ccccc2c1)C(=O)N[C@H](Cc1ccc2ccccc2c1)C(=O)N[C@@H](Cc1ccccc1)C(N)=O [(Ab) nmb b F amide] (H-[GABA][dNMe2Nal][d2Nal]F-NH2)	–	–	EC50 [2, 4]: 0.2 nM; RAT IV ED50 ([1]; Table IV): 20 µg
C[C@H](NC(=O)[C@@H](Cc1ccc2ccccc2c1)NC(=O)CCCCN)C(=O)N[C@@H](Cc1c[nH]c2ccccc12)C(=O)N[C@H](Cc1ccccc1)C(=O)N[C@@H](CCCCN)C(N)=O [(Ava) b A W f K amide, reference compound] (H-[Ava][d2Nal]AW[dF]K-NH2)	–	–	EC50 [2, 5]: 0.2 nM; Rat IV ED50 ([1]; Table II, iv tail vein injection, anesthetized weanling female rats): 1.5 µg
NCCCCC(=O)N[C@H](Cc1ccc2ccccc2c1)C(=O)N[C@H](Cc1ccc2ccccc2c1)C(=O)N[C@@H](Cc1ccc2ccccc2c1)C(=O)N[C@@H](CCCCN)C(N)=O [(Ava) b b B K amide] (H-[Ava][d2Nal][d2Nal][2Nal]K-NH2)	50	0.7	–
NCCCCC(=O)N[C@H](Cc1ccc2ccccc2c1)C(=O)N[C@H](Cc1ccc2ccccc2c1)C(=O)N[C@@H](Cc1ccccc1)C(=O)NCC(N)=O [(Ava) b b F G amide] (H-[Ava][d2Nal][d2Nal]FG-NH2)	50	7.2	–
NCCCCC(=O)N[C@H](Cc1ccc2ccccc2c1)C(=O)N[C@H](Cc1ccc2ccccc2c1)C(=O)N[C@@H](Cc1ccccc1)C(=O)N[C@@H](CCCCN)C(=O)N[C@@H](Cc1ccc(O)cc1)C(N)=O [(Ava) b b F K Y amide] (H-[Ava][d2Nal][d2Nal]FKY-NH2)	20	13.6	–
NCCCCC(=O)N[C@H](Cc1ccc2ccccc2c1)C(=O)N[C@H](Cc1ccc2ccccc2c1)C(=O)N[C@@H](Cc1ccccc1)C(=O)N[C@@H](CCCCN)C(N)=O [(Ava) b b F K amide] (H-[Ava][d2Nal][d2Nal]FK-NH2)	2.6	2.8	–
NCCCCC(=O)N[C@H](Cc1ccc2ccccc2c1)C(=O)N[C@H](Cc1ccc2ccccc2c1)C(=O)N[C@@H](Cc1ccccc1)C(=O)N[C@@H](CC(N)=O)C(N)=O [(Ava) b b F N amide] (H-[Ava][d2Nal][d2Nal]FN-NH2)	200	7.7	–
NCCCCC(=O)N[C@H](Cc1ccc2ccccc2c1)C(=O)N[C@H](Cc1ccc2ccccc2c1)C(=O)N[C@@H](Cc1ccccc1)C(=O)N1CCC[C@H]1C(N)=O [(Ava) b b F P amide] (H-[Ava][d2Nal][d2Nal]FP-NH2)	50	51	–
NCCCCCC(=O)N[C@H](Cc1ccc2ccccc2c1)C(=O)N[C@H](Cc1ccc2ccccc2c1)C(=O)N[C@@H](Cc1ccccc1)C(=O)N[C@@H](CCCCN)C(N)=O [(ahx) b b F K amide] (H-[Ahx][d2Nal][d2Nal]FK-NH2)	250	–	–
NC(=O)[C@@H]1Cc2ccccc2CN1C(=O)[C@@H](Cc1ccc2ccccc2c1)NC(=O)[C@@H](Cc1ccc2ccccc2c1)NC(=O)C1CCNCC1 [(inip) b b (Tic) amide] (H-[Inp][d2Nal][d2Nal][Tic]-NH2)	–	–	RAT IV ED50 ([1]; Table IV): 10 µg
NC(=O)CCCNC(=O)[C@@H](Cc1ccc2ccccc2c1)NC(=O)[C@@H](Cc1ccc2ccccc2c1)NC(=O)C1CCNCC1 [(inip) b b ab amide] (H-[Inp][d2Nal][d2Nal][GABA]-NH2; N-terminus assumed)	–	–	RAT IV ED50 ([1]; Table IV): 10 µg
NCCCC[C@H](NC(=O)[C@H](Cc1ccccc1)NC(=O)[C@@H](Cc1c[nH]c2ccccc12)NC(=O)[C@@H](Cc1ccc2ccccc2c1)NC(=O)C1CCNCC1)C(N)=O [(inip) b w F K amide] (H-[Inp][d2Nal][dW]FK-NH2)	0.070	–	–
CN(C(=O)[C@@H](Cc1ccc2ccccc2c1)NC(=O)C1CCN(C(=O)OC(C)(C)C)CC1)[C@@H](CN)Cc1ccc2ccccc2c1 [Boc (inip) b mbm]	–	–	EC50 ([2]; read-out: PIT Cell EC50, Table V, formula II compounds, GH release, 15 min incubation): 13 nM
C[C@H](N)C(=O)N[C@@H](Cc1c[nH]cn1)C(=O)N[C@H](Cc1ccc2ccccc2c1)C(=O)N[C@@H](C)C(=O)N[C@@H](Cc1c[nH]c2ccccc12)C(=O)N[C@H](Cc1ccccc1)C(=O)N[C@@H](CCCCN)C(N)=O [GHRP 1, Ala-His-D βNal-Ala-Trp-D Phe-Lys-NH2, reference compound] (H-AH[d2Nal]AW[dF]K-NH2)	–	–	EC50 [2, 5]: 1.4 nM
CN(C(=O)[C@@H](Cc1c[nH]c2ccccc12)NC(=O)[C@@H](Cc1c[nH]c2ccccc12)NC(=O)[C@@H](N)Cc1c[nH]cn1)[C@@H](Cc1ccccc1)C(=O)N[C@@H](CCCCN)C(N)=O [H w w nmF K amide] (H-H[dW][dW][NMeF]K-NH2)	–	37.3	–
NCCCC[C@H](NC(=O)[C@H](Cc1ccccc1)NC(=O)[C@@H](Cc1c[nH]c2ccccc12)NC(=O)[C@@H](Cc1c[nH]c2ccccc12)NC(=O)[C@@H](N)Cc1ccc(O)cc1)C(N)=O [Y w w F K amide] (H-Y[dW][dW]FK-NH2)	–	–	EC50 [2]: 1000 nM
NC(=O)[C@H](Cc1ccccc1)NC(=O)[C@@H](Cc1c[nH]c2ccccc12)NC(=O)[C@@H](Cc1c[nH]c2ccccc12)NC(=O)[C@@H](N)Cc1ccc(O)cc1 [Y w w F amide, reference compound] (H-Y[dW][dW]F-NH2)	–	–	EC50 [2]: 1000 nM
CN[C@H](Cc1ccc2ccccc2c1)C(=O)N[C@H](Cc1ccc2ccccc2c1)C(=O)N[C@@H](Cc1ccc(O)cc1)C(=O)N[C@@H](CCCCN)C(N)=O [nmb b Y K amide] (H-[dNMe2Nal][d2Nal]YK-NH2)	500	–	–
